# Test results from patent publication US7217727B2, “Phospholipase inhibitors” (Eli Lilly and Company, priority 2003, dated 2007).
# Target: T1, Recombinant Hepatic Lipase (Homo sapiens, UniProt P11150)
# T1 construct: made in house; host or cells: AV12 cells
# T1 sequence (P11150 23-499): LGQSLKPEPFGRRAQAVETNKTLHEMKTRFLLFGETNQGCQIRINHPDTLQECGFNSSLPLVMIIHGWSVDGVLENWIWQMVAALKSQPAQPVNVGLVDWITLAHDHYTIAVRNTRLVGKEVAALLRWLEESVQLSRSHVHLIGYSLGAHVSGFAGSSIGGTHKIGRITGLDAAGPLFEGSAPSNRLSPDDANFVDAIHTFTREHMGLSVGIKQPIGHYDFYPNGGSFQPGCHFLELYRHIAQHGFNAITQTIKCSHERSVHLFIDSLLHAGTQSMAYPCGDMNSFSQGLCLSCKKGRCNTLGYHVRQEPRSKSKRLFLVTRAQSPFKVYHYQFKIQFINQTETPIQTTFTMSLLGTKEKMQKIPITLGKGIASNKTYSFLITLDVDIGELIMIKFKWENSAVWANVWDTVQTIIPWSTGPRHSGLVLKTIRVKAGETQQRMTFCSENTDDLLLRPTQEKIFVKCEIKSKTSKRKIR
# Experiment: Hepatic Lipase Phospholipase Assay (ThioPEG substrate, DTNB read at 412 nm)
# Format: biochemical
# Conditions: recombinant HL 12.5 nM, 37° C., pH 8.3, read-out: IC50 (nM), hepatic lipase inhibition assay
# Description: Hepatic Lipase Phospholipase Assay
# Efficacy was determined by testing various compounds of the invention in a hepatic lipase and/or endothelial lipase assay discussed below, and disclosed in U.S. patent application Ser. No. 09/609, 871 filed Jul. 3, 2000 incorporated herein in its entirety for U.S Patent office purposes.
# • Substrate Buffer A: 100 mM Hepes, pH 8.3 at 37° C. • Substrate Buffer B: 100 mM Hepes, pH 8.3 at 37° C. with 6.83 mM Triton X100 • ThioPEG: Molecular wt. of 540 • Recombinant Hepatic Lipase • Thiophospholipid: about 0.42 mM thiophospholipid in chloroform • DTNB Solution: about […] DTNB in DMSO (dimethyl sulfoxide) Hepes Buffer A
# For Hepes Buffer A,.there is 2.4 g Hepes/100 mL water. Therefore 36 grams of Hepes is dissolved in 1500 mL of water. The mix solution's pH is adjusted to pH83 at 37° C. and brought up to 1500 mL with water. 500 mL of Buffer A is retained for the Protein Buffer.
# To the remaining 1000 mL of Hepes Buffer A, 4.49 g of Triton X-100 is added and then the combination mixed on a stir plate. It is optimal that stock Buffer A not be too cold or Triton X-100 will take a long time to go into solution […]
# The enzyme is stored at −80° C. in 100 or 50 μL portions. […] The enzyme should then be stored on ice until ready to use. […]
row,Compound,IC50
1,O=C(NCc1ccccc1)n1oc2ccccc2c1=O,60 nM

# System: not given
# Experiment: not given
# Conditions: not given
row,Compound,melting point
1,"CCOc1ccccc1CNC(=O)n1oc2ccccc2c1=O [Example 20, 3-Oxo-3H-benzo[d]isoxazole-2-carboxylic acid 2-ethoxy-benzylamide]",110 to 112 °C
2,"CCNC(=O)n1oc2ccccc2c1=O [Example 1, 3-Oxo-3H-benzo[d]isoxazole-2-carboxylic acid ethylamide]",112 to 113 °C
3,"Cc1ccccc1CNC(=O)n1oc2ccccc2c1=O [Example 8, 3-Oxo-3H-benzo[d]isoxazole-2-carboxylic acid 2-methyl-benzylamide]",154 to 155 °C
4,"CCc1cccc(CNC(=O)n2oc3ccccc3c2=O)c1 [Example 15, 3-Oxo-3H-benzo[d]isoxazole-2-carboxylic acid 3-ethyl-benzylamide]",72 to 73 °C
5,"CCCCNC(=O)n1oc2ccccc2c1=O [Example 2, 3-Oxo-3H-benzo[d]isoxazole-2-carboxylic acid butylamide]",64 to 65 °C
6,"O=C(NCC1CCCCC1)n1oc2ccccc2c1=O [Example 6, 3-Oxo-3H-benzo[d]isoxazole-2-carboxylic acid cyclohexylmethyl-amide]",82 to 84 °C
7,"Cc1cccc(CNC(=O)n2oc3ccccc3c2=O)c1 [Example 9, 3-Oxo-3H-benzo[d]isoxazole-2-carboxylic acid 3-methyl-benzylamide]",110 to 112 °C
8,"CCOc1ccc(CNC(=O)n2oc3ccccc3c2=O)cc1 [Example 22, 3-Oxo-3H-benzo[d]isoxazole-2-carboxylic acid 4-ethoxy-benzylamide]",110 to 112 °C
9,"CC(C)CCCCNC(=O)n1oc2ccccc2c1=O [Example 4, 3-Oxo-3H-benzo[d]isoxazole-2-carboxylic acid (5-methyl-hexyl)amide]",73 to 75 °C
10,"COc1ccc(CNC(=O)n2oc3ccccc3c2=O)cc1 [Example 19, 3-Oxo-3H-benzo[d]isoxazole-2-carboxylic acid 4-methoxy-benzylamide]",140 to 141 °C
11,"CC(C)(C)c1ccc(CNC(=O)n2oc3ccccc3c2=O)cc1 [Example 16, 3-Oxo-3H-benzo[d]isoxazole-2-carboxylic acid 4-tert-butyl-benzylamide]",123 to 125 °C
12,"COc1cccc(CNC(=O)n2oc3ccccc3c2=O)c1 [Example 18, 3-Oxo-3H-benzo[d]isoxazole-2-carboxylic acid 3-methoxy-benzylamide]",99 to 100 °C
13,"CCc1ccccc1CNC(=O)n1oc2ccccc2c1=O [Example 14, 3-Oxo-3H-benzo[d]isoxazole-2-carboxylic acid 2-ethyl-benzylamide]",107 to 109 °C
14,"O=C(NCCc1ccccc1)n1oc2ccccc2c1=O [Example 23, 3-Oxo-3H-benzo[d]isoxazole-2-carboxylic acid phenethyl-amide]",106 to 107 °C
15,"O=C(NCc1ccccc1C(F)(F)F)n1oc2ccccc2c1=O [Example 11, 3-Oxo-3H-benzo[d]isoxazole-2-carboxylic acid 2-trifluoromethyl-benzylamide]",139 to 141 °C
16,"CCOc1cccc(CNC(=O)n2oc3ccccc3c2=O)c1 [Example 21, 3-Oxo-3H-benzo[d]isoxazole-2-carboxylic acid 3-ethoxy-benzylamide]",89 to 90 °C
17,"O=C(NCc1ccccc1F)n1oc2ccccc2c1=O [Example 12, 3-Oxo-3H-benzo[d]isoxazole-2-carboxylic acid 2-fluoro-benzylamide]",142 to 143 °C
18,"Cc1cccc(C(C)C)c1CNC(=O)n1oc2ccccc2c1=O [Example 17, 3-Oxo-3H-benzo[d]isoxazole-2-carboxylic acid 2-isopropyl-6-methyl-benzylamide]",112 to 114 °C
19,"CCCCCCCCNC(=O)n1oc2ccccc2c1=O [Example 5, 3-Oxo-3H-benzo[d]isoxazole-2-carboxylic acid octylamide]",47 to 48 °C
20,"CCCCCCNC(=O)n1oc2ccccc2c1=O [Example 3, 3-Oxo-3H-benzo[d]isoxazole-2-carboxylic acid hexylamide]",46 to 48 °C
